According to patent US20100137313A1 (ASTRAZENECA AB, priority 2008, published 2010):

Target: S. pneumoniae Topoisomerase IV ATPase (ParE) (Streptococcus pneumoniae serotype 4, UniProt Q59961)
Test: S. pneumoniae Topoisomerase IV ATPase inhibition
Type: biochemical
Details: values marked * are an average of two or more data points, read-out: % Inh (13 μM) of S. pneumoniae Topoisomerase IV ATPase
Method: S. pneumoniae Topoisomerase IV ATPase Inhibition Activity: Compounds may be tested for inhibition of S. pneumoniae ParE ATPase activity using an ammonium molybdate/malachite green-based phosphate detection assay (Lanzetta, P. A., L. J. Alvarez, P. S. Reinach, and O. A. Candia, 1979, 100: 95-97). Assays are performed in multiwell plates in 30 μl reactions containing: 20 mM Tris buffer pH 8.0, 50 mM ammonium acetate, 8.0 mM magnesium chloride, 0.5 mM ethylenediaminetetraacetic acid, 5% glycerol, 5 mM 1,4-Dithio-DL-threitol, 0.005% Brij-35, 5 μg/ml sheared salmon sperm DNA, 1.25 nM S. pneumoniae ParE, 160 μM ATP, and test compound in dimethylsulfoxide. Reactions are quenched with 30 μl of ammonium molybdate/malachite green detection reagent containing 1.2 mM malachite green hydrochloride, 8.5 mM ammonium molybdate tetrahydrate, and 1 M hydrochloric acid. Plates are read in an absorbance plate reader at 650 nm and percent inhibition values are calculated using dimethylsulfoxide (2%)-containing reactions as 0% inhibition and EDTA-containing ([…]) reactions as 100% inhibition controls. An IC50 measurement of compound potency for each compound can be determined from reactions performed in the presence of 10 different compound concentrations.
Many of the compounds of the invention were tested in an assay substantially similar to the assays described above for measuring the inhibition of E.coli GyrB ATPase, E. coli Topoisomerase IV ATPase, S. aureus GyrB ATPase, and S. pneumoniae Topoisomerase IV ATPase, and had IC50 values of <200 μM in one or more assays.

Chain of S. pneumoniae Topoisomerase IV ATPase (ParE) (Q59961 whole entry): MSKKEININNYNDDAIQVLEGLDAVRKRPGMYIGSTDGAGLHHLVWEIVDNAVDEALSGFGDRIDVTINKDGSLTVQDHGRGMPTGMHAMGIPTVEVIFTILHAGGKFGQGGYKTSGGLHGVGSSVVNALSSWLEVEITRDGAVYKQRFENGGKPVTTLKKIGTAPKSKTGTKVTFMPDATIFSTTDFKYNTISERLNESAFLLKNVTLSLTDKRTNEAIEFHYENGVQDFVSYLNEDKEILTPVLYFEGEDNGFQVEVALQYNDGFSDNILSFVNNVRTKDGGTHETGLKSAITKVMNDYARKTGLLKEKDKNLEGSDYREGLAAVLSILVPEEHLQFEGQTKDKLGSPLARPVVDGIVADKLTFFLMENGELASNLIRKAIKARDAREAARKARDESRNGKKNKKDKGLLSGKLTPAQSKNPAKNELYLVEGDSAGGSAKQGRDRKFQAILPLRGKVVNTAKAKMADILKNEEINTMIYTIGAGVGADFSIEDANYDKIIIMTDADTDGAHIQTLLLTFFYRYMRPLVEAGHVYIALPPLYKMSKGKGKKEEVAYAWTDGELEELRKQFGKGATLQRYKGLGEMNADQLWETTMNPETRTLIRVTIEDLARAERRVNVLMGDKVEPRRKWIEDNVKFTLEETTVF

`COc1ncc(-c2cnc(Nc3cccc(C(C)=O)c3)nc2-n2nc(C(F)(F)F)cc2C)cc1C(=O)O` [Example 721, 5-{2-[(3-acetylphenyl)amino]-4-[5-methyl-3-(trifluoromethyl)-1H-pyrazol-1-yl]pyrimidin-5-yl}-2-methoxypyridine-3-carboxylic acid] and `Cc1cc(C(F)(F)F)nn1-c1nc(Nc2ccc(F)c(Cl)c2)ncc1-c1cnc(OC(C)C)c(C(=O)O)c1` [Example 960, 5-(2-(3-chloro-4-fluorophenylamino)-4-(5-methyl-3-(trifluoromethyl)-1H-pyrazol-1-yl)pyrimidin-5-yl)-2-isopropoxynicotinic acid] are the same in inhibition at 13 µM: 100% for the first, 100% for the second.

Compared with `Cc1cc(C(F)(F)F)nn1-c1nc(Nc2ccc(F)c(Cl)c2)ncc1-c1cncc(S(C)(=O)=O)c1` [Example 989, N-(3-chloro-4-fluorophenyl)-4-(5-methyl-3-(trifluoromethyl)-1H-pyrazol-1-yl)-5-(5-(methylsulfonyl)pyridin-3-yl)pyrimidin-2-amine], `Cc1cc(C(F)(F)F)nn1-c1nc(Nc2ccc(F)c(Cl)c2)ncc1-c1cncc(C(=O)NCCO)c1` [Example 927, 5-(2-(3-chloro-4-fluorophenylamino)-4-(5-methyl-3-(trifluoromethyl)-1H-pyrazol-1-yl)pyrimidin-5-yl)-N-(2-hydroxyethyl)nicotinamide] is lower in inhibition at 13 µM: 100% for the first, 98% for the second.

Going from `NC(=O)c1cccc(-c2cnc(Nc3ccc(F)c(Cl)c3)nc2-n2ccc(C(F)(F)F)n2)c1` [Example 1147, 3-(2-(3-chloro-4-fluorophenylamino)-4-(3-(trifluoromethyl)-1H-pyrazol-1-yl)pyrimidin-5-yl)benzamide] to `COc1ccc(-c2cnc(Nc3ccc(F)c(Cl)c3)nc2-n2ccc(C(F)(F)F)n2)cc1C(N)=O` [Example 1106, 5-(2-(3-chloro-4-fluorophenylamino)-4-(3-(trifluoromethyl)-1H-pyrazol-1-yl)pyrimidin-5-yl)-2-methoxybenzamide], the inhibition at 13 µM falls from 100% to 21%.

`CNC(=O)c1cc(-c2cnc(Nc3cc(OC)cc(OC)c3)nc2-n2nc(C(F)(F)F)cc2C)cnc1OC` [Example 808, 5-{2-[(3,5-dimethoxyphenyl)amino]-4-[5-methyl-3-(trifluoromethyl)-1H-pyrazol-1-yl]pyrimidin-5-yl}-2-methoxy-N-methylpyridine-3-carboxamide] and `COc1cc(Nc2ncc(-c3cnc(OC)c(C(=O)O)c3)c(-n3nc(C(F)(F)F)nc3C)n2)cc(OC)c1` [Example 1144, 5-(2-(3,5-dimethoxyphenylamino)-4-(5-methyl-3-(trifluoromethyl)-1H-1,2,4-triazol-1-yl)pyrimidin-5-yl)-2-methoxynicotinic acid] are the same in inhibition at 13 µM: 100% for the first, 100% for the second.

First: Cc1ccc(F)c(Nc2ncc(-c3cncc(C(=O)O)c3)c(-n3nc(C(F)(F)F)cc3C)n2)c1 [Example 773, 5-{2-[(2-fluoro-5-methylphenyl)-amino]-4-[5-methyl-3-(trifluoromethyl)-1H-pyrazol-1-yl]pyrimidin-5-yl}pyridine-3-carboxylic acid]
Second: Cc1cc(C(F)F)nn1-c1nc(Nc2ccc(F)c(Cl)c2)ncc1-c1cncc(C(N)=O)c1 [Example 538, 5-{2-[(3-chloro-4-fluorophenyl)amino]-4-[3-(difluoromethyl)-5-methyl-1H-pyrazol-1-yl]pyrimidin-5-yl}pyridine-3-carboxamide]
The inhibition at 13 µM of the first is lower: 55% for the first, 100% for the second.

Compared with `CCOC(=O)c1cncc(-c2cnc(Nc3ccc(F)c(Cl)c3)nc2NCCCN2CCCC2=O)c1` [Example 91, 5-{2-(3-Chloro-4-fluoro-phenylamino)-4-[3-(2-oxo-pyrrolidin-1-yl)-propylamino]-pyrimidin-5-yl}-nicotinic acid ethyl ester], `CCOC(=O)c1cncc(-c2cnc(Nc3ccc(F)c(Cl)c3)nc2NCCN2CCOCC2)c1` [Example 100, 5-[2-(3-Chloro-4-fluoro-phenylamino)-4-(2-morpholin-4-yl-ethylamino)-pyrimidin-5-yl]-nicotinic acid ethyl ester] is lower in inhibition at 13 µM: 83.1% for the first, 74.2% for the second.

Compared with `COc1cc(F)cc(Nc2ncc(-c3cncc(C(=O)O)c3)c(N3CCOCC3)n2)c1` [Example 394, 5-[2-(3-Fluoro-5-methoxy-phenylamino)-4-morpholino-4-yl-pyrimidin-5-yl]-nicotinic acid], `O=C(O)c1cncc(-c2cnc(Nc3ccc(F)c(Br)c3)nc2N2CCOCC2)c1` [Example 443] is lower in inhibition at 13 µM: 94% for the first, 85% for the second.

Going from `O=C(O)CCC(=O)Nc1cccc(-c2cnc(Nc3ccc(F)c(Cl)c3)nc2N2CCOCC2)c1` [Example 482, 4-[(3-{2-[(3-chloro-4-fluorophenyl)amino]-4-(morpholin-4-yl)pyrimidin-5-yl}phenyl)amino]-4-oxobutanoic acid] to `O=C(O)[C@@H]1CCCN1c1cccc(-c2cnc(Nc3ccc(F)c(Cl)c3)nc2-n2ccc(C(F)(F)F)n2)c1` [Example 599, 1-(3-{2-[(3-chloro-4-fluorophenyl)amino]-4-[3-(trifluoromethyl)-1H-pyrazol-1-yl]pyrimidin-5-yl}phenyl)-L-proline], the inhibition at 13 µM falls from 99% to 94%.

`CONC(=O)c1cncc(-c2cnc(Nc3ccc(F)c(Cl)c3)nc2-n2cc(-c3ccccn3)cn2)c1` [Example 550, 5-{2-[(3-chloro-4-fluorophenyl)amino]-4-[4-(pyridin-2-yl)-1H-pyrazol-1-yl]pyrimidin-5-yl}-N-methoxypyridine-3-carboxamide] and `CONC(=O)c1cncc(-c2cnc(Nc3ccc(F)c(Cl)c3)nc2-n2cc(-c3ccncn3)cn2)c1` [Example 551, 5-{2-[(3-chloro-4-fluorophenyl)amino]-4-[4-(pyrimidin-4-yl)-1H-pyrazol-1-yl]pyrimidin-5-yl}-N-methoxypyridine-3-carboxamide] are the same in inhibition at 13 µM: 100% for the first, 100% for the second.

`COc1cc(Nc2ncc(-c3cnc(OC)c(C(=O)NOCCN4CCOCC4)c3)c(-n3ccc(C(F)(F)F)n3)n2)cc(OC)c1` [Example 1167, 5-(2-(3,5-dimethoxyphenylamino)-4-(3-(trifluoromethyl)-1H-pyrazol-1-yl)pyrimidin-5-yl)-2-methoxy-N-(2-morpholinoethoxy)nicotinamide] and `COc1cc(Nc2ncc(-c3cnc(OC)c(C(=O)NCCS(C)(=O)=O)c3)c(-n3ccc(C(F)(F)F)n3)n2)cc(OC)c1` [Example 813, 5-{2-[(3,5-dimethoxyphenyl)amino]-4-[3-(trifluoromethyl)-1H-pyrazol-1-yl]pyrimidin-5-yl}-2-methoxy-N-[2-(methylsulfonyl)ethyl]pyridine-3-carboxamide] are the same in inhibition at 13 µM: 100% for the first, 100% for the second.

`CCCS(=O)(=O)NC(=O)c1cc(-c2cnc(Nc3cc(C)cc(C)c3)nc2-n2ccc(C(F)(F)F)n2)cnc1OC` [Example 824, 5-{2-[(3,5-dimethylphenyl)amino]-4-[3-(trifluoromethyl)-1H-pyrazol-1-yl]pyrimidin-5-yl}-2-methoxy-N-(propylsulfonyl)pyridine-3-carboxamide] and `COc1cc(Nc2ncc(-c3cnc(NCCS(C)(=O)=O)c(C(=O)O)c3)c(-n3ccc(C(F)(F)F)n3)n2)cc(OC)c1` [Example 585, 5-(2-(3,5-dimethoxyphenylamino)-4-(3-(trifluoromethyl)-1H-pyrazol-1-yl)pyrimidin-5-yl)-2-(2-(methylsulfonyl)ethylamino)nicotinic acid] are the same in inhibition at 13 µM: 100% for the first, 100% for the second.

`COc1cc(Nc2ncc(-c3cnc(-n4ccnc4)c(C(=O)O)c3)c(-n3ccc(C(F)(F)F)n3)n2)cc(OC)c1` [Example 590, 5-(2-(3,5-dimethoxyphenylamino)-4-(3-(trifluoromethyl)-1H-pyrazol-1-yl)pyrimidin-5-yl)-2-(1H-imidazol-1-yl)nicotinic acid] and `COc1cc(Nc2ncc(-c3cncc(C(=O)O)c3)c(-n3ccc(C(F)(F)F)n3)n2)cc(S(C)(=O)=O)c1` [Example 672, 5-(2-{[3-methoxy-5-(methylsulfonyl)phenyl]amino}-4-[3-(trifluoromethyl)-1H-pyrazol-1-yl]pyrimidin-5-yl)pyridine-3-carboxylic acid] are the same in inhibition at 13 µM: 100% for the first, 100% for the second.

`COCCNc1ncc(-c2cnc(Nc3ccc(F)c(Cl)c3)nc2-n2ccc(C(F)(F)F)n2)cc1C(=O)O` [Example 1079, 5-(2-(3-Chloro-4-fluorophenylamino)-4-(3-(trifluoromethyl)-1H-pyrazol-1-yl)pyrimidin-5-yl)-2-(2-methoxyethylamino)nicotinic acid] and `CONC(=O)c1cncc(-c2cnc(Nc3ccc(F)c(Cl)c3)nc2-n2nc(C(F)F)cc2C)c1` [Example 546, 5-{2-[(3-chloro-4-fluorophenyl)amino]-4-[3-(difluoromethyl)-5-methyl-1H-pyrazol-1-yl]pyrimidin-5-yl}-N-methoxypyridine-3-carboxamide] are the same in inhibition at 13 µM: 100% for the first, 100% for the second.

With `COc1cc(Cl)c(C)cc1Nc1ncc(-c2cccc(/C=C/C(=O)O)c2)c(NCCCN(C)C)n1` [Example 911, (E)-3-(3-(2-(4-chloro-2-methoxy-5-methylphenylamino)-4-(3-(dimethylamino)propylamino)pyrimidin-5-yl)phenyl)acrylic acid] the inhibition at 13 µM was 58%.
